Experimental findings from US20120302609A1, “Pyrazolines for the Modulation of PKM2” (Dynamix Pharmaceuticals LTD., priority 2011, published 2012) are described below.

Molecules are shown by their SMILES.

The test system of data set [1] is H1299 (Non-small cell lung carcinoma cell line). The data set can be described thus: Cell proliferation, Assay Protocol I (CellTiter-Glo). The format is cell-based. The following applies: Homo sapiens, NCI-H1299, 96 total hours of culture. The procedure:
Growth inhibitory activity against the human tumor cell lines was determined using Promega's CellTiter-Glo® assay. The cell lines of interest were placed in a 96-well microculture plate (Costar® white, flat bottom #3917) in a total volume of 90 μL/well. After 24 hours of incubation in a humidified incubator at 37° C. with 5% CO2 and 95% air, 10 μL of serially diluted test compounds in growth medium were added to each well. After 96 total hours of culture in a CO2 incubator, the plated cells and CellTiter-Glo® (Promega # G7571) reagents were brought to room temperature to equilibrate for 30 minutes. 100 μL of CellTiter-Glo® reagent was added to each well. The plate was shaken for 2 minutes and then left to equilibrate for 10 minutes before reading luminescence on the Tecan GENios microplate reader.
Percent inhibition of cell growth was calculated relative to untreated control wells. All tests were performed in duplicate for each concentration level. The IC50 value for the test compounds was estimated using Prism 3.03 by curve-fitting the data.

Data set [2] has as its system HT-29 cells (a colorectal cancer cell line). The experiment in a line: Combination with 5-FU on HT-29 cells. Format: cell-based, human. The following applies: FIG. 5.
Data set [3] can be described thus: HT-29 xenograft mouse model, safety (body weight, observations). The format is in vivo. The procedure:
This example illustrates the efficacy and safety of a compound according to embodiments of the present invention, i.e., Compound 1A, using a HT-29 xenograft mouse model (a colorectal cancer model).
All the procedures related to animal handling, care, and the treatment in this study were performed according to approved guidelines a following the guidance of the Association for Assessment and Accreditation of Laboratory Animal Care (AAALAC). At the time of routine monitoring, the animals were checked for any effects of tumor growth and treatments on normal behavior such as mobility, food and water consumption (by looking only), body weight gain/loss (body weights were measured thrice weekly), eye/hair matting and any other abnormal effect. Death and observed clinical signs were recorded on the basis of the numbers of animals within each subset.
• a. Blood samples were collected after the 1st dose and the 23rd dose. Collected blood samples from 2 animals in each group at the designated timepoints post dose. The detailed timepoints are as below: • For the groups with QD dosing schedule: 1, 4, 8 and 24 hr post dose. • For the groups with Q2D dosing schedule: 1, 8, 24 and 48 hr post dose. • b. 20 μl blood was collected via tail vein in EDTA-2K tube (0.5 ml tube containing 0.4 μl 15% EDTA-2K. 60u1 double distilled water was added into the tube and mixed well.

The test system of the next data set is H1299 cells. The experiment in a line: Cell cycle analysis. The format is cell-based, human. The settings on record: 48 hours, FIG. 6.
For the next data set, the system named is H-460 (lung). The experiment in a line: Cell proliferation assay (XTT). The settings on record: Homo sapiens, NCI-H460, 72 h, Assay duration: 72 hours, Readout: XTT. The format is cell-based. The procedure: Day 0 Cells were seeded at 3000 cells/well in 100 μl full media in 96-well culture plates (60 wells/plate, external wells filled with 100 μl PBS) and incubated overnight. • Day 1 On the following day, full media was changed to the tested media and compounds were added in 0.5% DMSO final. • Day 2-5 Cells were incubated over 72 hr. • Day 5 Cell proliferation was assessed using XTT proliferation assay as follows:
(§1) The assay is based on the ability of metabolic active cells to reduce the tetrazolium salt XTT to orange colored compounds of formazan. The dye formed is water soluble and the dye intensity can be read at a given wavelength with a spectrophotometer. The intensity of the dye is proportional to the number of metabolic active cells. The use of multiwell plates and an ELISA reader enables testing a large number of samples and obtaining easy and rapid results. The test procedure includes cultivation of cells in a 96-well plate, adding the XTT reagent and incubation for 2-24 hours. During incubation an orange color is formed, the intensity of which can be measured with a spectrophotometer, in this instance with an ELISA reader. The greater the number of active cells in the well, the greater the activity of mitochondria enzymes, and the higher the concentration of the dye formed, which can then be measured and quantitated.
• 1. […] The absorbance of the samples was measured against a background control as a blank (see 7) with a spectrophotometer (ELISA reader) at a wavelength of 450-500 nanometer. In order to measure reference absorbance (to measure non-specific readings), a wavelength of 630-690 nanometer was used and subtracted from the 450-500 nanometer measurement. • 7. Background control (blank): Slight spontaneous absorbance around 450-500 nanometer occurs in the culture medium incubated with the XTT reagent. This background absorbance depends on the culture medium, pH, incubation time and length of exposure to light. […] The average absorbance of the blank control wells was subtracted from that of the other wells. […]

The next data set concerns HCT-116 (colon). The experiment in a line: Cell proliferation assay (CellTiter-Glo Luminescent). The format is cell-based. The settings on record: Homo sapiens, 1 mM glucose, 96 hr. Background: ATP-based viability assays read luminescence as a measure of living cells.
Another data set has as its system HepG2 (liver). The data set can be described thus: Cell proliferation assay (XTT). Format: cell-based. The following applies: Homo sapiens, Complete media, Assay duration: 72 hours, Readout: XTT.
From the text: as §1
• 1. […] The absorbance of the samples was measured against a background control as a blank (see 7) with a spectrophotometer (ELISA reader) at a wavelength of 450-500 nanometer. In order to measure reference absorbance (to measure non-specific readings), a wavelength of 630-690 nanometer was used and subtracted from the 450-500 nanometer measurement. • 7. […] This background absorbance depends on the culture medium, pH, incubation time and length of exposure to light. […]
In general terms: Tetrazolium dyes change colour on reduction, which living cells bring about.

For a further data set, the target named is PKM1 (Homo sapiens, UniProt P14618). The experiment in a line: Isoform selectivity of pyruvate kinases. The format is biochemical.
Sequence of PKM1 (P14618 1-531 isoform P14618-2): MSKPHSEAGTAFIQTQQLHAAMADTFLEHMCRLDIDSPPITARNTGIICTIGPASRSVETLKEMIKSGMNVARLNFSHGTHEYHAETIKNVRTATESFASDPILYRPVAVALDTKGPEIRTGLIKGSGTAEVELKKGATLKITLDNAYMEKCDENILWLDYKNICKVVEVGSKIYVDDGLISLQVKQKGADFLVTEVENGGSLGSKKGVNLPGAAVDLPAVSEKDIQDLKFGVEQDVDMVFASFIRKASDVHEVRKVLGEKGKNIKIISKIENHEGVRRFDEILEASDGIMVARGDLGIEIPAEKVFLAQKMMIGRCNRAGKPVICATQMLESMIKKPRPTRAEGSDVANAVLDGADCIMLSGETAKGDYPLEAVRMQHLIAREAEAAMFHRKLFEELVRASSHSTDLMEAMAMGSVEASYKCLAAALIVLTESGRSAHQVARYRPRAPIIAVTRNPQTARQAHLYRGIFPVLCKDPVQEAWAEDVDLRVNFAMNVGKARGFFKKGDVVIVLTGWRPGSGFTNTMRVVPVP
The next data set concerns the target PKL (Homo sapiens, UniProt P30613). The experiment in a line: Isoform selectivity of pyruvate kinases. The format is biochemical.
For another data set, the target named is PKR (Homo sapiens, UniProt P30613). The experiment in a line: Isoform selectivity of pyruvate kinases. The format is biochemical.
Sequence of PKR (P30613 whole entry, canonical isoform): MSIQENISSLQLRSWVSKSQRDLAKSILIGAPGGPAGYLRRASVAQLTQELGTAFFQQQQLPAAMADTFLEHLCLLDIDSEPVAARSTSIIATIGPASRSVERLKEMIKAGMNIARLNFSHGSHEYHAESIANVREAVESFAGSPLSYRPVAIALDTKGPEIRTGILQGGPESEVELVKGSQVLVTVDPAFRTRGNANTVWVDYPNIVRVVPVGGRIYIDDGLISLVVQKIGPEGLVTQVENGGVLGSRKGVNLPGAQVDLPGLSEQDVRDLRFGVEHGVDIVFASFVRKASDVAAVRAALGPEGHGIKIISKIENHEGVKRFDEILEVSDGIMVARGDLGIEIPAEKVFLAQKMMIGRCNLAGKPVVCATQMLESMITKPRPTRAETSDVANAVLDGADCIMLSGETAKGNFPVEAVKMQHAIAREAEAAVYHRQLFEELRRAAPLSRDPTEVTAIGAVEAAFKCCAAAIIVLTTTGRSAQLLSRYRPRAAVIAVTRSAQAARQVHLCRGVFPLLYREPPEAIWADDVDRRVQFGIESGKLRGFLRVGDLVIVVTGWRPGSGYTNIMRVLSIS

Sequence of PKL (P30613 1-543 isoform P30613-2): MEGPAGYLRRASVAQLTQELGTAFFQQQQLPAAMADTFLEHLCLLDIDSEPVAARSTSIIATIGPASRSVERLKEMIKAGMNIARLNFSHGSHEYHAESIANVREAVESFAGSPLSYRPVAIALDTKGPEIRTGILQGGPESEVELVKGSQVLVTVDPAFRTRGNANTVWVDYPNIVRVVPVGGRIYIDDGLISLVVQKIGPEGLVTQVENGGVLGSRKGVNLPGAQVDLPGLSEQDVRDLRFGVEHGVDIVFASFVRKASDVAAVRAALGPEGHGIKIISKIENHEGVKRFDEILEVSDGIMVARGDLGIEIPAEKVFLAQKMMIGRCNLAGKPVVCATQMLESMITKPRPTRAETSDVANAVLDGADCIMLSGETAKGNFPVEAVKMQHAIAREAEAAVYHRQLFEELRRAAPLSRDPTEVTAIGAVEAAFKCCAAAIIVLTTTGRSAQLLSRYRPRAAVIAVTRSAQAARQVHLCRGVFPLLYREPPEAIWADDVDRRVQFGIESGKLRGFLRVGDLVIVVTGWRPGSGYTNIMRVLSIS

For the compound `CCS(=O)(=O)Nc1ccc(C2=NN(C(C)=O)C(c3ccc(OC)cc3)C2)cc1` (racemic) [Compound 1A, N-(4-(1-acetyl-5-(4-methoxyphenyl)-4,5-dihydro-1H-pyrazol-3-yl)phenyl)ethanesulfonamide], the IC50 (in general, the concentration that inhibits the measured activity by half) in data set [1] was 40 to 100 µM. The “effect in combination with 5-FU” value in [2] is on record as “at least additive”. The body weight loss result in data set [3] (all the treatment groups (100-400 mg/kg i.p.)) is on record as “No significant body weight loss”. In addition, in data set [3] (highest dosage level 400 mg/kg QD), the “in vivo safety profile” value is reported as “good in vivo safety profile”.

Regarding `COc1ccc([C@@H]2CC(c3ccc(NS(=O)(=O)c4ccc(F)cc4)cc3)=NN2C(C)=O)cc1` [Compound 13A, (S)—N-(4-(1-acetyl-5-(4-methoxyphenyl)-4,5-dihydro-1H-pyrazol-3-yl)phenyl)-4-fluorobenzenesulfonamide], the cell cycle analysis entry in the data set with H1299 cells is reported as “most cells were arrested at the G1/S phase”. Besides, the AC50 (in general, the midpoint of the concentration-response curve, whichever way the signal moves) was 10 to 20 µM in the data set with H-460 (lung) (1 mM glucose); over 20 µM in the data set with H-460 (lung) (Complete media); under 3 µM in the data set on H-460 (lung) (Lipoprotein-free media); 10 to 20 µM with HCT-116 (colon); over 20 µM in the data set on HepG2 (liver); “Not active” on PKM1. Further, the AC50 at PKL is over 11 µM; on PKR, over 30 µM.
